Several values for one entry are separate records, joined by “and”; a condition that tells them apart may be missing. Identical values can stand only once.
Test system: WM3248 melanoma cells, 486 antibodies
Test: Reverse phase protein arrays (RPPA)
Type: cell-based, Human
Excerpt: Pellets were snap frozen in liquid nitrogen and shipped to MD Anderson Cancer Center core RPPA facility for RPPA analysis (Table S5). Three biological replicates for each sample were generated.
Nomenclatures on the RPPA heatmaps: name_of_antibody.species_of_antibody.status_of_antibody. V - antibody validated; C - validation of antibody in progress; Q - antibody nonspecific; E – under evaluation; antibodies raised in M - mouse, G - goat, R - rabbit, or T - rat.

CN(C)c1cccc(Nc2cc(-c3ccccc3)nc(C3CCNCC3)n2)c1 [ARN22089, N1,N1-dimethyl-N3-(6-phenyl-2-(piperidin-4-yl)pyrimidin-4-yl)benzene-1,3-diamine]
RPPA Gab2.R.V (10 uM, single samples): 0.930 and 0.844 | RPPA Gli1.R.C (10 uM, single samples): 0.975 and 0.972 | RPPA Gli3.R.C (10 uM, single samples): 0.999 and 0.965 and 0.950 | RPPA Glucocorticoid.Receptor.R.V (10 uM, single samples): 1.129 and 1.132 and 0.984 | RPPA Glutamate.D1.2.R.V (10 uM, single samples): 1.103 and 0.990 | RPPA Glutaminase.R.C (10 uM, single samples): 0.915 and 0.958 and 0.933 | RPPA Granzyme.B.R.V (10 uM, single samples): 0.958 and 0.982 and 0.983 | RPPA Grp75.R.C (10 uM, single samples): 1.161 and 1.138 and 0.943 | RPPA Gys.R.V (10 uM, single samples): 0.976 and 0.935 and 1.023 | RPPA Gys_pS641.R.V (10 uM, single samples): 0.940 and 1.033 and 1.049 | RPPA H2AX_pS139.R.C (10 uM, single samples): 1.009 and 0.918 | RPPA H2AX_pS140.M.C (10 uM, single samples): 1.079 and 1.061 | RPPA HER2.M.V (10 uM, single samples): 1.048 | RPPA HER2_pY1248.R.V (10 uM, single samples): 0.857 and 0.890 and 0.990 | RPPA HER3.R.V (10 uM, single samples): 1.151 and 0.962 and 0.842 | RPPA HER3_pY1289.R.C (10 uM, single samples): 0.893 and 0.994 | RPPA HES1.R.V (10 uM, single samples): 0.925 and 1.199 and 0.845 | RPPA Heregulin.R.V (10 uM, single samples): 0.811 and 0.959 and 0.936 | RPPA eEF2K.R.V (10 uM, single samples): 1.065 | RPPA eIF4E.R.V (10 uM, single samples): 1.415 and 0.768 and 0.752 | RPPA eIF4E_pS209.R.V (10 uM, single samples): 0.931 and 1.049 and 1.085 | RPPA eIF4G.R.C (10 uM, single samples): 1.057 and 0.870 and 0.859 | RPPA MYH11.R.C Average (20 uM): 1.101 | RPPA Myosin.IIa.R.C Average (20 uM): 0.941 | RPPA Myosin.IIa_pS1943.R.V Average (20 uM): 0.973 | RPPA Myt1.R.C Average (20 uM): 1.012 | RPPA N.Cadherin.R.V Average (20 uM): 1.035 | RPPA N.Ras.M.V Average (20 uM): 0.928 | RPPA NAPSIN.A.R.C Average (20 uM): 1.046 | RPPA NDRG1_pT346.R.V Average (20 uM): 0.991 | RPPA NDUFB4.R.V Average (20 uM): 1.026 | RPPA NRF2.R.C Average (20 uM): 0.936 | RPPA Notch1.cleaved.R.V Average (20 uM): 0.890 | RPPA Oct.4.R.C Average (20 uM): 1.121 | RPPA P.Cadherin.R.C Average (20 uM): 1.190 | RPPA PAICS.R.C Average (20 uM): 0.891 | RPPA PAK1.R.V Average (20 uM): 0.919 | RPPA PAK_pS474_S602_S560.R.V Average (20 uM): 1.203 | RPPA PAK_pT423_T402.R.C Average (20 uM): 1.013 | RPPA PAR.R.C Average (20 uM): 1.051 | RPPA PARG.R.C Average (20 uM): 1.310 | RPPA PARP.R.V Average (20 uM): 0.981 | RPPA PAX6.R.V Average (20 uM): 1.013 | RPPA PAX8.R.C Average (20 uM): 0.970 | RPPA PCNA.M.C Average (20 uM): 0.864 | RPPA PD.L1.R.C Average (20 uM): 0.983 | RPPA PDH.M.V Average (20 uM): 0.994 | RPPA PDHA1.R.V Average (20 uM): 1.030 | RPPA PDHK1.R.C Average (20 uM): 0.963 | RPPA PDK1.R.V Average (20 uM): 1.096 | RPPA PDK1_pS241.R.V Average (20 uM): 0.972 | RPPA PEA.15.R.V Average (20 uM): 0.952 | RPPA PEA.15_pS116.R.V Average (20 uM): 1.019 | RPPA PERK.R.V Average (20 uM): 0.988 | RPPA PGM1.R.V Average (20 uM): 0.940 | RPPA PHGDH.R.C Average (20 uM): 0.998 | RPPA PHLPP.R.V Average (20 uM): 1.124 | RPPA PI3K.p85.R.C Average (20 uM): 0.900 | RPPA PI3K.p110.a.R.C Average (20 uM): 0.931 | RPPA PKA.a.R.V Average (20 uM): 0.928 | RPPA PKC.a.b.II_pT638_T641.R.V Average (20 uM): 0.926 | RPPA PKC.b.II_pS660.R.V Average (20 uM): 1.079 | RPPA PKCa.R.V Average (20 uM): 1.559 | RPPA PKM2.R.C Average (20 uM): 0.899 | RPPA PLC.gamma1_pS1248.R.V Average (20 uM): 0.895 | RPPA PLC.gamma2_pY759.R.V Average (20 uM): 0.983 | RPPA PLK1.R.C Average (20 uM): 0.920 | RPPA PMS2.R.V Average (20 uM): 0.986 | RPPA PR.R.V Average (20 uM): 0.956 | RPPA PRAS40.M.C Average (20 uM): 1.227 | RPPA PRAS40_pT246.R.V Average (20 uM): 1.102 | RPPA PRC1_pT481.R.C Average (20 uM): 1.084 | RPPA Patched.R.C Average (20 uM): 1.079 | RPPA Paxillin.R.C Average (20 uM): 0.827 | RPPA Pdcd4.R.C Average (20 uM): 0.990 | RPPA Porin.M.V Average (20 uM): 1.051 | RPPA p21.R.C Average (20 uM): 0.828 | RPPA p27.Kip1.R.C Average (20 uM): 1.157 | RPPA p27_pT157.R.C Average (20 uM): 1.214 | RPPA p27_pT198.R.V Average (20 uM): 1.156 | RPPA p38.MAPK.R.V Average (20 uM): 0.981

Source: publication PMC9127750, “Structure-based design of CDC42 effector interaction inhibitors for the treatment of cancer” (Cell reports, 2022)
